Like-named read-outs stand apart in the source and are kept apart here. One block for each compound: values may come before it.
Legend:
[1] = test system: SW620 tumor organoids; test: Tumor organoid cytotoxicity (CellTiter-Glo 3D); details: Homo sapiens
[2] = Pharmacokinetics in CD-1 mice; details: oral gavage (p.o.) 50 mg/kg
Protocol: Whole blood was harvested at specific time points and the separated plasma frozen at −80° C. for storage or used for LC-MS/MS analysis.

[3] = Human microsomal stability; type: in vitro ADME; details: human microsomes, Table 6, read-out: Microsomal stability Human t1/2
[4] = test system: SW620 tumor xenografts
Protocol: In vivo studies. […] Body weight and tumor volumes were monitored 2×/week. […] In addition, irinotecan was administered i.p. at 50 mg/kg.

[5] = test system: SW620 quasi-mesenchymal (GFP+) tumor xenografts; test: Antitumor activity by oral gavage against SW620 quasi-mesenchymal (GFP+) xenografts; type: in vivo, athymic nude mice
Protocol: (Esquer et al., 2021) Five days after cell injection, injected mice were randomized into three groups for treatment (Tx). Group 1 (12 mice) received control treatment of gavage vehicle (10% DMSO, 90% PEG 400 (polyethylene glycol 400) by volume). […] Mice were treated once a day, 5 days a week PO (via oral gavage). Mice were weighed and tumor volume assessed twice a week by caliper measurement as illustrated in FIGS. 21A and 21B. At sacrifice, tumors were weighed and measured. In addition, gross observations on condition of mice were made and samples of plasma, tumors, liver spleen and kidneys were collected for further assessment, e.g., drug quantification and toxicity assessment.

[6] = test system: SW620 tumor organoids; test: Synergy studies with SN38 (LOEWE synergy scores); type: cell-based, human; set-up: key to LOEWE Synergy Score: % response beyond expectation; <-10 antagonism, -10–10 additive, >10 synergy; details: for LOEWE Synergy Score: compound at its IC50 (6: 5 μM; 6.3, 6.11: 3 μM)
Protocol: (§1) Cell based cytotoxicity dose response and combination studies. […] Plates were then incubated for 3 days before treatment.
(e.g., synergy score 20 corresponds to 20% of response beyond expectation). According to our experience, the synergy scores near 0 gives limited confidence on synergy or antagonism.
When the synergy score is: • Less than −10: the interaction between two drugs is likely to be antagonism; • From −10 to 10: the interaction between two drugs is likely to be additivity; • Larger than 10: the interaction between two drugs is likely to be synergy.

[7] = Mouse liver microsome stability; details: CD-1, mouse, liver microsomes, pH 7.4, Microsomal stability Mouse t1/2 (min), Table 6
[8] = test system: CRC042 patient-derived tumor organoids; test: Patient tumor organoid cytotoxicity; type: cell-based; details: Homo sapiens; single agent, Table 4A
[9] = test system: CRC102 patient-derived tumor organoids; test: Patient tumor organoid cytotoxicity; type: cell-based; details: Homo sapiens; single agent, Table 4A
Protocol: Patient Cell Tumor Organoid Culture. CRC048 and CRC102 patient cell samples were expanded and cultured as PDTOs using reported methodologies and reagents. (Drost et al., 2016; Sato et al., 2011) Briefly, patient cells were washed with PBS, digested with TrypLE, and filtered through 100 μm cell strainer before used in 3D cell culture. Patient cells were seeded at 5,000 cells per well in 96-well plates, coated with 2% Matrigel, and allowed to self-assemble as PDTOs over 72 h.
(§2) Tumor Organoid Cytotoxicity.

[10] = test system: HCT116 tumor organoids; test: Tumor organoid cytotoxicity (CellTiter-Glo 3D); type: cell-based, human; details: Homo sapiens
Protocol: as §1
Cell Line Tumor Organoid Culture.
as §2

[11] = test system: SW620 tumor organoids
[12] = combination of 6.11 and irinotecan

Compound: Cc1cc(Nc2ccc(NC(=O)Cc3cc(Br)cs3)cc2)nc(N2CCCC2)n1 [Compound 6.11, 2-(4-bromothiophen-2-yl)-N-(4-((6-methyl-2-(pyrrolidin-1-yl)pyrimidin-4-yl)amino)phenyl)-acetamide]
IC50 ([1]; SW-620, 72 h, read-out: 3 D Cytotoxicity 72 hr IC50 (μM) SW620): 2.6 µM
IC50 ([1]; SW-620, read-out: IC50 of cytotoxicity in SW620 cells): < 10 µM
IC50 ([1]; SW-620, read-out: Tumor Organoid Cytotoxicity IC50 (μM) SW620): 2.6 µM
oral bioavailability, uptake in the plasma [2]: 44%
half-life [3]: 4.38 h
tumor volume, combination with irinotecan ([4]; 6.11 1×/day + irinotecan 50 mg/kg i.p., up to 20 days, M-phenotype xenografts, vs irinotecan alone or control): significantly inhibits colorectal cancer SW620 tumor xenografts
tumor volume after the last treatment, combination with irinotecan ([4]; 6.11 + irinotecan vs irinotecan alone, last treatment day 33): significantly inhibits colorectal SW620 tumors beyond the last treatment
survival of tumor-bearing mice, combination with irinotecan ([4]; 6.11 + irinotecan, compared to irinotecan alone and control): significantly increases the survival
difference in tumor volume, irinotecan alone vs combination, 8 days post treatment [4, 12]: 3.4 fold
drop of tumor volume post treatment [4, 12]: ~1.5 fold
mouse body weight ([5]; oral gavage 75 and 125 mg/kg vs vehicle): no significant difference in body weight
tumor volume ([5]; oral gavage 75 and 125 mg/kg, once a day 5 days a week, 27 days): significant dose dependent decrease in tumor volume
LOEWE Synergy Score ([6]; SN38 0.64 nM): 46
LOEWE Synergy Score ([6]; SN38 16 nM): 52
LOEWE Synergy Score ([6]; SN38 80 nM): 49
LOEWE Synergy Score ([6]; SN38 400 nM): 48
LOEWE Synergy Score ([6]; SN38 2000 nM): 36
LOEWE Synergy Score ([6]; SN38 10000 nM): 25
LOEWE Synergy Score ([6]; SN38 […]): 54
synergism with irinotecan (and SN38), in words ([6]; killing SW620 tumor organoids): synergism
half-life at 10 μM [7]: 0.954 h
IC50 [8]: 4.5 µM
IC50 [9]: 8.38 µM
IC50 ([10]; HCT-116, 72 h, Table 6, read-out: 3 D Cytotoxicity 72 hr IC50 (μM) HCT116): 3.5 µM
IC50 ([10]; HCT-116, single agent, Table 4A, read-out: Tumor Organoid Cytotoxicity IC50 (μM) HCT116): 3.48 µM

IC50 [11]: > 30 µM
Compound: Cc1cc(Nc2ccc(NC(=O)Cn3cnc4ccccc43)cc2)nc(N2CCCC2)n1 [Compound 6.28, 2-(1H-benzo[d]imidazole-1-yl)-N-(4-((6-methyl-2-(pyrrolidin-1-yl)pyrimidin-4-yl)amino)phenyl) acetamide]

Source: patent publication US20230103444A1 (The Regents of the University of Colorado, a Body Corporate, priority 2020, published 2023)
